Data taken from US5919464A, “Treatment of aberrant cellular states with biomodulators” (University of New Mexico, priority 1993, dated 1999).

Assays:
[1] = test system: canine glioma tumors; assay: canine glioma tumor growth in nude rats, various biomodulators; assay type: in vivo; settings: in words
Experimental: C57 BL/6 mice were injected I.M. with B-16 melanoma cells, maintained in culture in the right flank or shoulder. Tumor growth was monitored on a daily basis by physical measurement and by MRI/MRS on a weekly basis. Treatment routes were via intraperitoneal injection using various CAD between 1 μg and 0.001 μg per animal on a M, W, F injection schedule. The animals were terminated by CO2 when the tumors had become 1.0 cm in diameter. Lung metastases were counted.
Various biomodulators were tested in vivo for their effects on canine glioma tumors established and monitored as above for mice, but in nude rats. […] FIGS. 29-30 show the progression of the tumors over time with treatment with, respectively, PWM, Sw, CAD, HHD-2, HHD-3, HHD-4, and HHD-7.

[2] = test system: P-815 mastocytoma cells; assay: P-815 cytotoxic T lympholysis / cell mediated lympholysis (CML), spleen cells treated in culture; assay type: cell-based, mouse; settings: hydrocortisone 2 mg given day -2; hydroxyurea 10^-5M; in words
Experimental: In this case the P-815 is injected into the H-2 incompatible host and in the Brunner and Cerotini model an antigen specific lympholysis event occurs with an optimum on day 11 at an effector/target ratio of 100:1 with 30% lysis If the spleens of the injected animals are removed on day three there is no observable cytotoxicity; however, if the spleen cells are treated with biomodulator (in this case PWM at 100 ng) there is an enormous increase in the cytotoxicity event. […] The slope represents a measure of the efficiency of kill and in the biomodulator treated cells is approximately 1.6 versus 0.24 for the control antigen driven response on day 11. This represents a seven fold increase in simple cytotoxicity efficiency. Again this is concentration dependent and the kinetics of the response are such that if the cells are left in culture for times which approximate the in vivo 11 day optimum then the lysis values approach the untreated controls. […]
P 815 mastocytoma cells are grown in culture or as an ascites (DBA H-2/d) and injected into C57BL/6J mice (H-2/b). […] The specificity of the response is assessed by testing the cytotoxicity against EL-4 cells ([…]) which are NK insensitive and histoincompatible with the original target. […]
Seven effector/target ratios are tested and the percent lysis calculated. […]

[3] = test system: human peripheral blood leukocytes (HPBLs); assay: HPBL plaque forming cell (PFC) assay / IgG production in vitro (differentiation); assay type: cell-based; settings: HPBL; for Stimulation of IgG Production, Percent: at the stimulating concentration
Description: (§1) C. […] This model is used to correlate the effects of biomodulators on the expression of immune response in vitro. The plaque assay disclosed in this reference is used for the determination of the effect of biomodulators on the specificity, class and subclass of individual clones.
(§2) A. Purification of PWM and separation of the differentiative and proliferative functions Pokeweed Mitogen (PWM) and three of its isomitogens, Pa-1 and Pa-5, which are primarily differentiative in nature, and Pa-2 which is primarily proliferative, were prepared according to the method of Waxdal, supra, except that the iso-mitogens were finally purified by isoelectric focusing.
Human peripheral blood leukocytes were cultured in a standard tissue culture medium. Aliquots of these cultured cells (1,000,000 cells/ml medium) were cultured for 6 hours, and the specified amount of Formula II compound was added; the cells were then cultured for an additional 90 hours. Sheep red blood cells (SRBC) conditioned with class-specific (IpG) goat anti-human antiserum (1:400) for 2 hours; then guinea pig complement (2%) for 2 hours were conjugated to Protein A as described in detail in Radioimmunoimaging and Radioimmunotherapy, Eds.

[4] = test system: human peripheral blood leukocytes (HPBLs); assay: HPBL 3H-thymidine incorporation (proliferation); assay type: cell-based; parameters: reference not given here
Description: as §1, §2

[5] = biological target: T1, HMGCoA reductase (Rattus norvegicus, UniProt P51639); assay: inhibition of rat liver HMGCoA reductase activity; assay type: biochemical; parameters: from tissue; host or cells: rat liver; settings: rat liver
T1 sequence (P51639 1-887): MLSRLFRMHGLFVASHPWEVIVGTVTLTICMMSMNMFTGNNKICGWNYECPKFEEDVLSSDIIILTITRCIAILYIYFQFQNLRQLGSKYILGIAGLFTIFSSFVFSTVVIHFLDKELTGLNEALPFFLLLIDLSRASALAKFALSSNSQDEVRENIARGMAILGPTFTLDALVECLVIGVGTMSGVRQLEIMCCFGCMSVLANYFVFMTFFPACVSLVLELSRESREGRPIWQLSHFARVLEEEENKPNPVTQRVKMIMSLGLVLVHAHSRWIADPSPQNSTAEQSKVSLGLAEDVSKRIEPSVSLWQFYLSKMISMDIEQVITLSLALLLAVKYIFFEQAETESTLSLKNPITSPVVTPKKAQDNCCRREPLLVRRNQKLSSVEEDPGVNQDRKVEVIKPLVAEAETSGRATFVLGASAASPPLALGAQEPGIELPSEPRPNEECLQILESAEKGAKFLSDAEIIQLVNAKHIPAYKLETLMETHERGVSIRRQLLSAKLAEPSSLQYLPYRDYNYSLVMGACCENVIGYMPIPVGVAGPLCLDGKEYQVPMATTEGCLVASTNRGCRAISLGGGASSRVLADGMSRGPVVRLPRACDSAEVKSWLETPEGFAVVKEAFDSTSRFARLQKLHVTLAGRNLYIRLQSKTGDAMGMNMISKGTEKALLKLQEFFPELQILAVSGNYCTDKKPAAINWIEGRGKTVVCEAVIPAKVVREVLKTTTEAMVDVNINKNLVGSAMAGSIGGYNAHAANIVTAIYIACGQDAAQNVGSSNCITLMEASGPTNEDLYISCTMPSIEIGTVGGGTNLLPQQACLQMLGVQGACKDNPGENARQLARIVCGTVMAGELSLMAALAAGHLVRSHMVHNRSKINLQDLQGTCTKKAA
Description: reductase activity; data obtained according to Example IA.

[6] = test system: canine glioma; assay: in vivo inhibition of canine glioma in dog brain (NMR)
Experimental: Canine glioma was implanted surgically into the brains of four outbred dogs (2×10^6 cells). This procedure normally causes death by tumor growth in 14-28 days.
Simultaneous with implantation, the dogs were each placed on a regimen of compounds according to the invention, Compounds IIa', IIe' and TF004 in various dosages were administered on alternate days (M, W, F) by I.P. injection in phosphate buffered saline.
Tumor progress was assessed at weekly intervals by NMR, employing GdDTPA as imaging agent. This method illuminates vascularization at the surface of the tumor, and provides images which correlate well with neuropathological observations.

[7] = 1 ng/kg I.P., treatment begun on day of implantation

SMILES	Stimulation of IgG Production, Concentration [3]	Stimulation of IgG Production, Percent [3]	Proliferation ((3H) thymidine incorporation into DNA) [4]	IC50 [5]	further results
CC(C)OC(=O)C[C@H](O)C[C@H](O)/C=C/c1c(C(C)C)nc(-c2ccccc2)n1-c1ccc(F)cc1 [HHD-3]	–	–	–	–	canine glioma tumor regression in nude rats [1]: showed no regression effect, just delay of the control growth pattern
CC(C)OC(=O)C[C@H](O)C[C@@H](O)/C=C/c1c(C(C)C)nc(-c2ccccc2)n1-c1ccc(F)cc1 [HHD-7]	–	–	–	–	canine glioma tumor regression in nude rats [1]: showed the best regression
C[C@]12CCC(=O)C=C1CC[C@@H]1[C@@H]2[C@@H](O)C[C@@]2(C)[C@H]1CC[C@]2(O)C(=O)CO [Hydrocortisone]	–	–	–	–	influence on the biomodulator effect on CML [2]: reduced the biomodulator effect
NC(=O)NO [Hydroxyurea]	–	–	–	–	influence on the biomodulator effect on CML [2]: does not inhibit the biomodulator effect on CML
CC(C)OC(=O)C[C@@H](O)C[C@@H](O)/C=C/c1c(C(C)C)nc(-c2ccccc2)n1-c1ccc(F)cc1 [IIa]	200 pM	1700%	0.98	3150 nM	Inhibitory Concentration (inhibiting nonspecific IgG production below normal production) [3]: none found
CC(C)OC(=O)C[C@@H](O)C[C@H](O)/C=C/c1c(C(C)C)nc(-c2ccccc2)n1-c1ccc(F)cc1 [IIb]	200 pM	1700%	1.0	1350 nM	Inhibitory Concentration (inhibiting nonspecific IgG production below normal production) [3]: none found
CC(C)OC(=O)C[C@H](O)C[C@H](O)/C=C/c1c(C(C)C)nc(-c2ccccc2)n1-c1ccc(F)cc1 [IId, reference compound]	100000 pM	320%	0.66	2 nM	–
CC(C)c1nc(-c2ccccc2)n(-c2ccc(F)cc2)c1/C=C/[C@H](O)C[C@H](O)CC(=O)O [TF-002]	–	–	–	–	day by which tumor regressed ([6]; pre-treated, 10 ng/kg I.P. M, W, F): ≤ 19 days; later tumor status ([6]; pre-treated, 10 ng/kg, in words): free of tumor
CC(C)c1c(/C=C/C(O)CC(O)CC(=O)O)n(-c2ccc(F)cc2)c2ccccc12 (stereo not drawn) [TF-004]	–	–	–	–	day of complete regression [6, 7]: ≤ 21 days; day of substantial regression [6, 7]: ≤ 15 days; day of complete regression ([6]; treatment begun on Day 11): ≤ 30 days; day of substantial regression ([6]; treatment begun on Day 11): ≤ 21 days
